Measurements published in patent US7220770B2, “Heterocyclo-substituted imidazoles for the treatment of inflammation” (priority 1994, dated 2007).

First: Cc1cncc(-c2nc(C(F)(F)F)cn2-c2ccc(S(N)(=O)=O)cc2)c1 [Example 43, 4-[2-(5-Methylpyridin-3-yl)-4-(trifluoromethyl)-1H-imidazol-1-yl]benzenesulfonamide]
Second: NS(=O)(=O)c1ccc(-n2cc(C(F)(F)F)nc2-c2cccnc2)cc1 [Example 46, 4-[2-(Pyridin-3-yl)-4-(trifluoromethyl)-1H-imidazol-1-yl]benzenesulfonamide]
The melting point of the first is higher: 242 to 243 °C for the first, 213 to 215 °C for the second.

Compared with Cc1ncccc1-c1nc(C(F)(F)F)cn1-c1ccc(S(C)(=O)=O)cc1 [Example 44, 2-Methyl-3-[1-[4-(methyloulfonyl)phenyl]-4-(trifluoromethyl)-1H-imidazol-2-yl]pyridine], Cc1ncccc1-c1nc(C(F)(F)F)cn1-c1ccc(S(N)(=O)=O)cc1 [Example 45, 4-[2-(2-Methylpyridin-3-yl)-4-(trifluoromethyl)-1H-imidazol-1-yl]benzenesulfonamide] is higher in melting point: 160 to 161 °C for the first, 235 to 237 °C for the second.

First: CCOC(=O)C1(O)CN(c2ccc(S(C)(=O)=O)cc2)C(c2ccc(Cl)cc2)=N1 (stereo not shown) [Example 156, Ethyl [2-(4-chlorophenyl)-4-hydroxy-1-[4-(methylsulfonyl)phenyl]-4,5-dihydro-1H-imidazol-4-yl]carboxylate]
Second: CS(=O)(=O)c1ccc(-n2cc(CC(=O)O)nc2-c2ccc(Cl)cc2)cc1 [Example 176, 2-(4-Chlorophenyl)-1-[4-(methylsulfonyl)phenyl]-1H-imidazole-4-acetic acid]
The melting point of the first is lower: 162 °C for the first, 263 to 264 °C for the second.

First: Cc1ccc(OCc2cn(-c3ccc(S(C)(=O)=O)cc3)c(-c3ccc(Cl)cc3)n2)cc1 [Example 159, 2-(4-Chlorophenyl)-4-[(4-methylphenoxy)methyl]-1-[4-(methylsulfonyl)phenyl]-1H-imidazole]
Second: Cc1ccc(SCc2cn(-c3ccc(S(C)(=O)=O)cc3)c(-c3ccc(Cl)cc3)n2)cc1 [Example 160]
The melting point of the first is higher: 193 °C for the first, 51 °C for the second.

Compared with CS(=O)(=O)c1ccc(-n2cc(CF)nc2-c2ccc(Cl)cc2)cc1 [Example 164, 2-(4-Chlorophenyl)-4-fluoromethyl-1-[4-(methylsulfonyl)phenyl]-1H-imidazole], CS(=O)(=O)c1ccc(-n2cc(CC#N)nc2-c2ccc(Cl)cc2)cc1 [Example 175, 2-(4-Chlorophenyl)-1-[4-(methylsulfonyl)phenyl]-1H-imidazole-4-acetanitrile] is higher in melting point: 165 °C for the first, 197 °C for the second.

Compared with CS(=O)(=O)c1ccc(-n2cc(CN=[N+]=[N-])nc2-c2ccc(Cl)cc2)cc1 [Example 165, 4-Azidomethyl-2-(4-chlorophenyl)-1-[4-(methylsulfonyl)phenyl]-1H-imidazole], CC(C)SCc1cn(-c2ccc(S(C)(=O)=O)cc2)c(-c2ccc(Cl)cc2)n1 [Example 168, 2-(4-Chlorophenyl)-4-[[(1-methylethyl)thio]methyl]-1-[4-(methylsulfonyl)phenyl]-1H-imidazole] is lower in melting point: 186 °C for the first, 118 °C for the second.

First: CS(=O)(=O)c1ccc(-n2cc(CSCc3ccccc3)nc2-c2ccc(Cl)cc2)cc1 [Example 167, 2-(4-Chlorophenyl)-1-[4-(methylsulfonyl)phenyl]-4-[[(4-phenylmethyl)thio]methyl]-1H-imidazole]
Second: CS(=O)(=O)c1ccc(-n2cc(COCc3ccccc3)nc2-c2ccc(Cl)cc2)cc1 [Example 178, 2-(4-Chlorophenyl)-1-[4-(methyloulfonyl)phenyl]-4-(phenylmethoxymethyl)-1H-imidazole]
The melting point of the first is lower: 41 °C for the first, 64 to 65 °C for the second.

First: CS(=O)(=O)c1ccc(-n2cc(CSC3CCCCC3)nc2-c2ccc(Cl)cc2)cc1 [Example 169, 2-(4-Chlorophenyl)-4-[[(cyclohexyl)thio]methyl]-1-[4-(methylsulfonyl)phenyl]-1H-imidazole]
Second: CS(=O)(=O)c1ccc(-n2cc(C#N)nc2-c2ccc(Cl)cc2)cc1 [Example 174, 2-(4-Chlorophenyl)-1-[4-(methylsulfonyl)phenyl]-1H-imidazole-4-carbonitrile]
The melting point of the first is lower: 48 °C for the first, 205 °C for the second.

First: CS(=O)(=O)c1ccc(-n2cc(CSc3ccccc3Cl)nc2-c2ccc(Cl)cc2)cc1 [Example 170, 2-(4-Chlorophenyl)-4-[[(2-chlorophenyl)thio)methyl]-1-[4-(methylsulfonyl)phenyl]-1H-imidazole]
Second: Cc1ccccc1SCc1cn(-c2ccc(S(C)(=O)=O)cc2)c(-c2ccc(Cl)cc2)n1 [Example 171, 2-(4-Chlorophenyl)-4-[[(2-methylphenyl)thio]methyl]-1-[4-(methylsulfonyl)phenyl]-1H-imidazole]
The melting point of the first is higher: 153 °C for the first, 51 °C for the second.

With CC(C)c1ccccc1SCc1cn(-c2ccc(S(C)(=O)=O)cc2)c(-c2ccc(Cl)cc2)n1 [Example 173] the melting point was 68 to 73 °C.
